“Also recorded” adds a separate entry of the source.
Legend:
GABAA α5 receptor = biological target: T1, GABAA α5 receptor (Rattus norvegicus, UniProt P19969); assay: GABAA α5 receptor occupancy with Ro 15-4513 tracer; assay type: in vivo, Long Evans rats; conditions: for Ro 15-4513 binding in hippocampus / Ro 15-4513 levels/binding in cerebellum: 0.01-10 mg/kg; for % RO (L-655,708 Method): young Long Evans rats
T1 construct: from tissue; host or cells: rat brain in vivo; hippocampus versus cerebellum
Source text: Food and water were available ad libitum.

aged-impaired (AI) rats [1] = assay: Morris water maze behavioral task; assay type: in vivo, rat; conditions: 100 μg ICV
Method: The effects of 6,6 dimethyl-3-(3-hydroxypropyl)thio-1-(thiazol-2-yl)-6,7-dihydro-2-benzothiophen-4(5H)-one on the in vivo spatial memory retention of aged-impaired (AI) rats were assessed in a Morris water maze behavioral task. A water maze is a pool surrounded with a novel set of patterns relative to the maze.
Cognitively impaired aged rats were implanted unilaterally with a cannula into the lateral ventricle. Stereotaxic coordinates were 1.0 mm posterior to bregma, 1.5 mm lateral to midline, and 3.5 mm ventral to the skull surface. After about a week of recovery, the rats were pre-trained in a water maze for 2 days (6 trials per day) to locate a submerged escape platform hidden underneath the surface of the pool, in which the escape platform location varied from day to day. No intracerebroventricular (ICV) infusion was given during pre-training.
After pre-training, rats received ICV infusion of either 100 μg 6,6 dimethyl-3-(3-hydroxypropyl)thio-1-(thiazol-2-yl)-6,7-dihydro-2-benzothiophen-4(5H)-one (n=6) in 5 μl DMSO or vehicle DMSO (n=5) 40 min prior to water maze training and testing. Training consisted of 8 trials per day for 2 days where the hidden escape platform remained in the same location. Rats were given 60 seconds to locate the platform with a 60 seconds inter-trial interval. The rats were given a probe test (120 seconds) 24 hr. after the end of training where the escape platform was removed. During the training, there were 4 blocks, where each block had 4 training trials.
During a test trial 24 hr after training, the escape platform was removed. The search/swim pattern of the rats was used to measure whether the rats remember where the escape platform was located during pre-trial training in order to test for the long-term memory of the rats. In this trial, “target annulus” is a designated area 1.5 times the size of the escape platform around the area where the platform was located during pre-trial training. “Opposite annulus” is a control area of the same size as the size of the target annulus, which is located opposite to the target annulus in the pool. If the rats had good long-term memory, they would tend to search in the area surrounding the location where the platform was during the pre-trial training (i.e., the “target” annulus; and not the “opposite” annulus). “Time in annulus” is the amount of time in seconds that the rat spent in the target or opposite annulus area. “Number (#) of crossings” in annulus is the number of times the rat swam across the target or opposite annulus area.

α5β3γ2 GABAA R = α5β3γ2 GABAA R (Homo sapiens, UniProt P18507+P31644); assay: Binding activity on GABAA R: inhibition of [3H]Ro15-1788 binding, α5 containing receptor
Method in brief: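 Membranes from dexamethasone-induced (0.5 μM, 1 day) Ltk cells stably expressing α5β3γ2 receptors, 0.2 mg/ml protein, incubated with [3H]Ro15-1788 for 1 h at 4 °C in 50 mM KH2PO4/1 mM EDTA/0.2 M KCl, pH 7.4. Nonspecific binding with 10 μM diazepam; bound ligand by GF/B filtration and scintillation counting, triplicates.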

GABAA R (α5β2γ2) = biological target: T2, GABAA R (α5β2γ2) (Homo sapiens, UniProt P18507+P31644); assay: Positive allosteric modulator activity: potentiation of EC20 GABA current in oocytes; assay type: cell-based; conditions: read-out: GABA α5 Functional Data: potentiation, @ 100 nM, EC20 GABA; ranges of the column heads
T2 construct: expressed in transfected cells
Method in brief: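 Xenopus oocytes injected with 1 ng α5:β2:γ2 cDNA (1:1:10 by weight), tested day 2, voltage-clamped at −60 mV under MBS superfusion.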

aged-impaired (AI) rats [2] = assay: Radial Arm Maze (RAM) behavioral task, spatial memory retention; assay type: in vivo, rat
Method: […] RAM behavioral tasks were performed on eight AI rats. All five treatment conditions (vehicle and four dosage levels) were tested on all eight rats.
The RAM apparatus used consisted of eight equidistantly-spaced arms. An elevated maze arm (7 cm width×75 cm length) projected from each facet of an octagonal center platform (30 cm diameter, 51.5 cm height). Clear side walls on the arms were 10 cm high and were angled at […] to form a trough. A food well (4 cm diameter, 2 cm deep) was located at the distal end of each arm. Froot Loops™ (Kellogg Company) were used as rewards. Blocks constructed of Plexiglas™ (30 cm height×12 cm width) could be positioned to prevent entry to any arm. Numerous extra maze cues surrounding the apparatus were also provided.
The AI rats were initially subjected to a pre-training test (Chappell et al. Neuropharmacology 37: 481-487, 1998). The pre-training test consisted of a habituation phase (4 days), a training phase on the standard win-shift task (18 days) and another training phase (14 days) in which a brief delay was imposed between presentation of a subset of arms designated by the experimenter (e.g., 5 arms available and 3 arms blocked) and completion of the eight-arm win-shift task (i.e., with all eight arms available).
In the habituation phase, rats were familiarized to the maze for an 8-minute session on four consecutive days. In each of these sessions, food rewards were scattered on the RAM, initially on the center platform and arms and then progressively confined to the arms. After this habituation phase, a standard training protocol was used, in which a food pellet was located at the end of each arm. Rats received one trial each day for 18 days. Each daily trial terminated when all eight food pellets had been obtained or when either 16 choices were made, or 15 minutes had elapsed. After completion of this training phase, a second training phase was carried out in which the memory demand was increased by imposing a brief delay during the trial. At the beginning of each trial, three arms of the eight-arm maze were blocked. Rats were allowed to obtain food on the five arms to which access was permitted during this initial “information phase” of the trial. Rats were then removed from the maze for 60 seconds, during which time the barriers on the maze were removed, thus allowing access to all eight arms. Rats were then placed back onto the center platform and allowed to obtain the remaining food rewards during this “retention test” phase of the trial. The identity and configuration of the blocked arms varied across trials.
The number of “errors” the AI rats made during the retention test phase was tracked. […]

α5-containing GABAA R = α5-containing GABAA R (Homo sapiens, UniProt P18507+P31644); conditions: EC20; cited from earlier work
[3] = probe test 24 hr after training
[4] = tracer 1 μg/kg, i.v., after vehicle

T2 sequence (P31644 32-462): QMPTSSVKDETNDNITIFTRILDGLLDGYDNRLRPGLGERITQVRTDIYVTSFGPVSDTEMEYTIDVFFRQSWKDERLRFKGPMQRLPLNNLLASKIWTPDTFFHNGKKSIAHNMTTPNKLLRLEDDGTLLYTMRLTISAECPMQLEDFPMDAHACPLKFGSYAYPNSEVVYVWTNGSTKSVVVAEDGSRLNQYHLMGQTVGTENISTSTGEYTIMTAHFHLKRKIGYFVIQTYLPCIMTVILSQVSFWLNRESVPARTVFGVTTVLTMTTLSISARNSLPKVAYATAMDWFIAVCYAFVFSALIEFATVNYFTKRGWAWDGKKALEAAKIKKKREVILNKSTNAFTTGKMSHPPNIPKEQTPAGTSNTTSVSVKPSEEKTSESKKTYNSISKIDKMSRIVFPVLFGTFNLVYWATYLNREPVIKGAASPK
T2 sequence (P47870 25-512 partner limits assumed): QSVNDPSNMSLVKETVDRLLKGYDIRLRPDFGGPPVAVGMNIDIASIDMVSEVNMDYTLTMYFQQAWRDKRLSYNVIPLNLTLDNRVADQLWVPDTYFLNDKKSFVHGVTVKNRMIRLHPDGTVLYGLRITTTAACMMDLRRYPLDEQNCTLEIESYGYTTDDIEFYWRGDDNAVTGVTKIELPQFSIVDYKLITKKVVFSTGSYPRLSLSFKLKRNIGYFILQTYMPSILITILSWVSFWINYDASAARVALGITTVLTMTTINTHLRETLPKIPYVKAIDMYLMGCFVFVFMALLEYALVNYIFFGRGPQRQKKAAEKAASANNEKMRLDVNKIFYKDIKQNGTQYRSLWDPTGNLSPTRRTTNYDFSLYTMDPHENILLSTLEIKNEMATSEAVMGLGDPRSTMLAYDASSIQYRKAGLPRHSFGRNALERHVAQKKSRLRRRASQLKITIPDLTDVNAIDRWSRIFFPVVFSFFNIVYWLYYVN
T2 sequence (P18507 40-475): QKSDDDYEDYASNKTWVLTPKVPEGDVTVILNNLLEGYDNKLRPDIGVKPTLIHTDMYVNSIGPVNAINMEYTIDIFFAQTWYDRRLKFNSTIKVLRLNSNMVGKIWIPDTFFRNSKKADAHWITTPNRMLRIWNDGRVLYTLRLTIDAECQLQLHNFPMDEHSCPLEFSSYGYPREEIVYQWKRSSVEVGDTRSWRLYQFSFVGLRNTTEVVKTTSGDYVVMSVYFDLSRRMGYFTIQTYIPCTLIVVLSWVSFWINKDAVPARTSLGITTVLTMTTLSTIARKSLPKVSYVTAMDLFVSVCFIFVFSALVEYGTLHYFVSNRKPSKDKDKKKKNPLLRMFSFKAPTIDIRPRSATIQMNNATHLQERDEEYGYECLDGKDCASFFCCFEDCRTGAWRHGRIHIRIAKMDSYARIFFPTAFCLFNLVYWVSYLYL
Sequence of α5β3γ2 GABAA R (P31644 32-462): as the sequence (P31644 32-462) above
Sequence of α5β3γ2 GABAA R (P28472 26-473 partner): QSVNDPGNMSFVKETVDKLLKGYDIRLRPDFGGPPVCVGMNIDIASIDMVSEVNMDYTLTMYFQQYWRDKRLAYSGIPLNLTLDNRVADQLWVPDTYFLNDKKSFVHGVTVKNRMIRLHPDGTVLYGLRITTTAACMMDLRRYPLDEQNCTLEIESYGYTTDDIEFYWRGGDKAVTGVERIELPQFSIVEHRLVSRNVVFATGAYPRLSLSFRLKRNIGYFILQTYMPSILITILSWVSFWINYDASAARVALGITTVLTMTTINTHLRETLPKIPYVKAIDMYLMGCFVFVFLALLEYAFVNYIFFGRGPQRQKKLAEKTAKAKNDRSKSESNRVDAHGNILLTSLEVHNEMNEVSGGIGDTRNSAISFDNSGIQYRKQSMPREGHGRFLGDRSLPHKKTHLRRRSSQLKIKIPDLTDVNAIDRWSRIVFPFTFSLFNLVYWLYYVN
Sequence of α5β3γ2 GABAA R (P18507 40-475): as the sequence (P18507 40-475) above
T1 sequence (P19969 32-464 limits assumed): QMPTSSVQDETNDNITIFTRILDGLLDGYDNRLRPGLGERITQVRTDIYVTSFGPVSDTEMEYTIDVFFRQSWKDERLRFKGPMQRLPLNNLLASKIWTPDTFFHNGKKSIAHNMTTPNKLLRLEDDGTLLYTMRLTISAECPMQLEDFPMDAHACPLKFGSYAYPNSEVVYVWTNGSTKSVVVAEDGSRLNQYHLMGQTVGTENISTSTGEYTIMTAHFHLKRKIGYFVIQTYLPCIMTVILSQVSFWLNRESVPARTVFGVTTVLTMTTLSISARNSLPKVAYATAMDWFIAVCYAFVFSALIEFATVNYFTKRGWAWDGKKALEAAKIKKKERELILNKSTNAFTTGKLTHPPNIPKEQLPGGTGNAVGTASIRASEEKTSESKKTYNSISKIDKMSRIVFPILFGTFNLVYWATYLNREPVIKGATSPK
Sequence of α5-containing GABAA R (P31644 32-462): as the sequence (P31644 32-462) above
Sequence of α5-containing GABAA R (P28472 26-473 partner): as the sequence (P28472 26-473 partner) above
Sequence of α5-containing GABAA R (P18507 40-475): as the sequence (P18507 40-475) above

SMILES: CCOC(=O)c1ncn2c1Cn1c(C)nnc1-c1cc(OC)ccc1-2
- Ro 15-4513 binding in hippocampus (GABAA α5 receptor; i.v.): blocked the binding of Ro154513 in the hippocampus
- Ro 15-4513 levels/binding in cerebellum (GABAA α5 receptor; i.v.): did not affect binding of Ro15413 in the cerebellum

SMILES: CC1(C)CC(=O)c2c(SCCCO)sc(-c3nccs3)c2C1 [6,6 dimethyl-3-(3-hydroxypropyl)thio-1-(thiazol-2-yl)-6,7-dihydro-2-benzothiophen-4(5H)-one]
- time to find the escape platform (aged-impaired (AI) rats [1]; beginning of training (block 1)): about 24 seconds
- time to find the escape platform (aged-impaired (AI) rats [1]; end of training (block 4)): about 9.6 seconds
- number of crossings of target annulus compared to opposite annulus (aged-impaired (AI) rats [1]; [3]): crossed the “target annulus” more often
- time in target annulus compared to opposite annulus (aged-impaired (AI) rats [1]; [3]): spent significantly more time in the target annulus

SMILES: COc1ccc2c(c1)-c1nn(C)cc1Cc1c(-c3noc(COC4CCCC4)n3)ncn1-2 [Compound 297]
- Ki (α5β3γ2 GABAA R): < 100 nM
- activation at 0.1 µM (GABAA R (α5β2γ2)): 5 to 20%

SMILES: COCCn1cc2c(n1)-c1cc(OC)ccc1-n1cnc(-c3nc(COC)no3)c1C2 [Compound 300]
- Ki (α5β3γ2 GABAA R): < 100 nM
- activation at 0.1 µM (GABAA R (α5β2γ2)): 20 to 50%

SMILES: COc1ccc2c(c1)-c1nn(CC3CCCO3)cc1Cc1c(-c3noc(COC(C)C)n3)ncn1-2 (centres unmarked) [Compound 301]
- Ki (α5β3γ2 GABAA R): < 100 nM
- activation at 0.1 µM (GABAA R (α5β2γ2)): 20 to 50%

SMILES: COc1ccc2c(c1)-c1nn(CC3CCCO3)cc1Cc1c(-c3nnc(C(F)(F)F)o3)ncn1-2 (centres unmarked) [Compound 302]
- Ki (α5β3γ2 GABAA R): < 100 nM
- activation at 0.1 µM (GABAA R (α5β2γ2)): 5 to 20%

SMILES: COc1ccc2c(c1)-c1nn(CC3CCCO3)cc1Cc1c(-c3nnc(COCC(F)(F)F)o3)ncn1-2 (centres unmarked) [Compound 303]
- Ki (α5β3γ2 GABAA R): < 100 nM
- activation at 0.1 µM (GABAA R (α5β2γ2)): 20 to 50%

SMILES: COCc1nc(-c2ncn3c2Cc2cn(CC4CCCO4)nc2-c2cc(Cl)ccc2-3)no1 (centres unmarked) [Compound 304]
- Ki (α5β3γ2 GABAA R): < 100 nM
- activation at 0.1 µM (GABAA R (α5β2γ2)): 5 to 20%

SMILES: Clc1ccc2c(c1)-c1nn(CC3CCCO3)cc1Cc1c(-c3noc(C4COCCO4)n3)ncn1-2 (centres unmarked) [Compound 305]
- Ki (α5β3γ2 GABAA R): < 100 nM
- activation at 0.1 µM (GABAA R (α5β2γ2)): 5 to 20%

SMILES: COC(C)(C)c1nc(-c2ncn3c2Cc2cn(CC4CCCO4)nc2-c2cc(Cl)ccc2-3)no1 (centres unmarked) [Compound 306]
- Ki (α5β3γ2 GABAA R): < 100 nM
- activation at 0.1 µM (GABAA R (α5β2γ2)): 5 to 20%

SMILES: Clc1ccc2c(c1)-c1nn(CC3CCCO3)cc1Cc1c(-c3noc(C4CCOC4)n3)ncn1-2 (centres unmarked) [Compound 308]
- Ki (α5β3γ2 GABAA R): < 100 nM
- activation at 0.1 µM (GABAA R (α5β2γ2)): 20 to 50%

SMILES: FC(F)(F)COCc1nc(-c2ncn3c2Cc2cn(CC4CCCO4)nc2-c2cc(Cl)ccc2-3)no1 (centres unmarked) [Compound 309]
- Ki (α5β3γ2 GABAA R): < 100 nM
- activation at 0.1 µM (GABAA R (α5β2γ2)): 5 to 20%

SMILES: COc1ccc2c(c1)-c1nn(CC3COC3)cc1Cc1c(-c3nc(COC4CCOC4)no3)ncn1-2 (centres unmarked) [Compound 310]
- Ki (α5β3γ2 GABAA R): < 100 nM
- activation at 0.1 µM (GABAA R (α5β2γ2)): 20 to 50%

SMILES: COc1ccc2c(c1)-c1nn(CC3COC3)cc1Cc1c(-c3noc(C(C)(C)OC)n3)ncn1-2 [Compound 312]
- Ki (α5β3γ2 GABAA R): < 100 nM
- activation at 0.1 µM (GABAA R (α5β2γ2)): 5 to 20%

SMILES: COCCn1cc2c(n1)-c1cc(OC)ccc1-n1cnc(-c3noc(COCC(F)(F)F)n3)c1C2 [Compound 313]
- Ki (α5β3γ2 GABAA R): < 100 nM
- activation at 0.1 µM (GABAA R (α5β2γ2)): 5 to 20%

SMILES: COc1ccc2c(c1)-c1nn(CC3COC3)cc1Cc1c(-c3noc(COCC(F)(F)F)n3)ncn1-2 [Compound 314]
- Ki (α5β3γ2 GABAA R): < 100 nM
- activation at 0.1 µM (GABAA R (α5β2γ2)): 5 to 20%

SMILES: COCc1noc(-c2ncn3c2Cc2cn(CCOC(F)(F)F)nc2-c2cc(OC)ccc2-3)n1 [Compound 315]
- Ki (α5β3γ2 GABAA R): < 100 nM
- activation at 0.1 µM (GABAA R (α5β2γ2)): 20 to 50%

SMILES: CCOC(=O)c1ncn2c1CN(C)C(=O)c1cc(N=[N+]=[N-])ccc1-2 [Ro 15-4513]
- level of Ro 15-4513 in cerebellum (GABAA α5 receptor; [4]): 0.36 ± 0.02 ng/g
- level of Ro 15-4513 in hippocampus (GABAA α5 receptor; [4]): 1.93 ± 0.05 ng/g
- levels of Ro 15-4513 in hippocampus compared with cerebellum (GABAA α5 receptor; [4]): > 5 fold

SMILES: CCOC(=O)c1ncn2c1Cn1c(C)nnc1-c1cc(OC)ccc1-2 [ethyl 3-methoxy-7-methyl-9H-benzo[f]imidazo[1,5-a][1,2,4]tri]
- memory performance relative to vehicle control (aged-impaired (AI) rats [2]; 3 mg/kg, four-hour delay): significantly improved memory performance
- memory performance relative to vehicle control (aged-impaired (AI) rats [2]; 10 mg/kg, four-hour delay): significantly improved memory performance
- Ro 15-4513 binding in hippocampus (GABAA α5 receptor; i.v.): reduced Ro 15-4513 binding in hippocampus
- Ro 15-4513 levels/binding in cerebellum (GABAA α5 receptor; i.v.): without affecting cerebellum levels of Ro 15-4513
- GABAA α5 receptor occupancy (GABAA α5 receptor; 10 mg/kg, i.v.): > 90%

SMILES: COC(=O)c1c(-c2ccccc2)cnnc1-c1ccccc1 [methyl 3,5-diphenylpyridazine-4-carboxylate]
- average no. of errors ± SEM, retention test (aged-impaired (AI) rats [2]; 3 mg/kg ip, two-hour delay): 1.31±0.40
- memory performance relative to vehicle control (aged-impaired (AI) rats [2]; 3 mg/kg ip, two-hour delay): significantly improved memory performance
- % RO (L-655,708 Method) (GABAA α5 receptor; 0.01 mg/kg, i.v.): 19.2%
- % RO (L-655,708 Method) (GABAA α5 receptor; 0.1 mg/kg, i.v.): 16.4%
- % RO (L-655,708 Method) (GABAA α5 receptor; 1 mg/kg, i.v.): 38.5%
- Ro 15-4513 binding in hippocampus (GABAA α5 receptor; i.v.): dose-dependently reduced Ro 15-4513 binding in hippocampus; also recorded: blocked the binding of Ro154513 in the hippocampus
- Ro 15-4513 levels/binding in cerebellum (GABAA α5 receptor; i.v.): without affecting cerebellum levels of Ro 15-4513; also recorded: did not affect binding of Ro15413 in the cerebellum
- % RO (L-655,708 Method) (GABAA α5 receptor; 10 mg/kg, i.v.): 110.0%
- GABAA α5 receptors occupied (GABAA α5 receptor; at exposures behaviorally active in aged-impaired rats, hippocampus): about 32%
- ED50 of receptor occupancy, ratio method (GABAA α5 receptor; i.v.): 1.8 mg/kg
- receptor occupancy at 10 mg/kg (GABAA α5 receptor; rat, iv, 10 mg/kg): > 90%
- α5 in vitro efficacy (α5-containing GABAA R): +27

From patent US20240132513A1, “BENZAZEPINE DERIVATIVES, COMPOSITIONS, AND METHODS FOR TREATING COGNITIVE IMPAIRMENT” (AGENEBIO, INC., priority 2022, published 2024)
